# Experimental data: paper PMC8767159, “Multiparameter Optimization of Trypanocidal Cruzain Inhibitors With In Vivo Activity and Favorable Pharmacokinetics” (Frontiers in Pharmacology, 2022)
# Assays:
# [1] = test system: T. cruzi intracellular amastigotes; assay: Assay against T. cruzi intracellular amastigotes (Tulahuen lacZ strain in HFF-1 fibroblasts); format: cell-based, Trypanosoma cruzi; details: Trypanosoma cruzi, HFF-1, 120 h, Table 3, 120 h, mean ± SD of three assays
# Description: Biological assays against T. cruzi intracellular amastigotes were performed as reported previously using the T. cruzi Tulahuen strain, which is genetically engineered to express the E. coli β-galactosidase gene lacZ ([Buckner et al., 1996]). β-Galactosidase catalyzes a colorimetric reaction with chlorophenol red β-D-galactopyranoside (CPRG, Sigma Chemical Co., St. Louis, MO) as the substrate. The assays were conducted in 96-well tissue culture plates, and the compounds to be tested were prepared in 100% DMSO. Epimastigotes were maintained in liver infusion tryptone (LIT) enriched with 10% fetal calf serum (FCS), streptomycin, and penicillin at 28°C. Epimastigotes were converted to trypomastigotes by incubation in Grace’s insect medium (Sigma–Aldrich, St. Louis, MO) enriched with 10% FCS at 28°C. Human HFF-1 fibroblasts were seeded at 2 × 10^3/well in 80 μl of RPMI 1640 without phenol red and incubated overnight at 37°C and 5% CO2. Trypomastigotes were seeded at 1.0 × 10^4/well in 20 μl of RPMI 1640, and the plates were incubated at 37°C and 5% CO2. The next day, the synthesized compounds were added (50 μl) in 3-fold serial dilutions at concentrations ranging from 0.4 to 300 μM, and the plates were incubated at 37°C and 5% CO2. Each compound concentration was assayed in triplicate. After 120 h, 50 μl of chlorophenol red β-D-galactopyranoside (CPRG, Sigma–Aldrich) and IGEPAL CA-630 (Sigma–Aldrich) at a final concentration of 0.1% were added. The absorbance was measured at a wavelength of 570 nm in an automated microplate reader. The data were transferred to SigmaPlot 10.0 (Systat Software Inc., Erkrath, Germany) to determine the IC50 values. Benznidazole (BZ, Sigma–Aldrich) was used as a positive control, and untreated wells (100% parasite growth) were used as negative controls in all plates. All compounds were tested in three independent assays.
# [2] = Parallel artificial membrane permeability assay (PAMPA); format: in vitro ADME; details: PAMPA, Table 3; donor pH 6.5, acceptor pH 7.4, 5 h
# Description: The permeability of the compounds was assessed using the PAMPA method ([Yu et al., 2015]). The test compounds were dissolved in DMSO to a concentration of 5 mM. Next, the compounds were diluted in a stock plate in saline phosphate buffer (PBS), pH 6.5, containing 1% DMSO to a concentration of 1 µM. Then, 300 µl of each test compound was added to the donor plate. Afterward, 200 µl of PBS buffer, pH 7.4, was added to the acceptor plate. The donor plate was attached to the acceptor plate. The assembled acceptor-donor plate was then incubated at 37°C for 5 h under gentle agitation. To analyze the concentration of the compounds by mass spectrometry, two analysis plates (one for the donor and another for the acceptor plate) containing 300 μl of MEOH:ACN 50:50 were prepared. To the donor analysis plate, 90 µl of PBS, pH 6.5, and 10 µl of the content of the donor plate were added. For the acceptor analysis plate, 100 µl of the content of the acceptor plate was added. To monitor any potential decomposition/intrinsic instability of the test compounds in solution, samples from the stock plate were subjected to LC-MS/MS. The compounds that presented Pe ≥ 1.5 × 10^−6 cm/s were classified as permeable, while compounds that presented Pe < 1.5 × 10^−6 cm/s were considered poorly permeable or nonpermeable.
# cruzain = target: T1, cruzain (Trypanosoma cruzi, UniProt P25779); assay: Cruzain enzyme inhibition assay (cleavage of fluorogenic substrate Z-FR-AMC); format: biochemical
# T1 construct: made in house; host or cells: Escherichia coli (strain M15)
# T1 sequence (P25779 123-337 limits assumed): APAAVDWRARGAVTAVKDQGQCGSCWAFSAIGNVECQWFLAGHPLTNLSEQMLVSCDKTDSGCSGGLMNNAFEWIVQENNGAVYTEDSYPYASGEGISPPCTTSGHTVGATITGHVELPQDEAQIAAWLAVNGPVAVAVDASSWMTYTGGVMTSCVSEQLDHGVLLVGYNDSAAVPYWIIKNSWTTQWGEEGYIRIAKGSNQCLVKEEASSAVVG
# Description: Pro-cruzain truncated at the C-terminus was expressed and purified using a previously described protocol ([Ferreira et al., 2019]). Escherichia coli (strain M15) cultures were grown overnight at 37°C and 200 rpm in Luria Bertani (LB) medium supplemented with ampicillin (100 μg/ml) and kanamycin (50 μg/ml). Next, the cultures were diluted 10-fold in fresh LB medium supplemented with 0.5 M NaCl, 0.2% glucose, 1 mM betaine, 0.5 M sorbitol, 100 μg/ml ampicillin, and 50 μg/ml kanamycin and incubated at 37°C and 200 rpm. At an optical density (OD600) of 0.9, the cultures were incubated at 47°C for 20 min to promote the expression of chaperones. Then, the expression of cruzain was induced by adding isopropyl β-D-thiogalactopyranoside (IPTG) to a final concentration of 0.2 mM, which was followed by overnight incubation of the cultures at 20°C and 200 rpm. Next, the cultures were centrifuged (5,000 rpm, 30 min, 4°C), and the cells were suspended in 50 ml of lysis buffer (300 mM NaCl, 50 mM Tris-HCl, and 1.6 mg/ml lysozyme, pH 8.0) per liter of culture and lysed by sonication (12 cycles of 30 s). This cell lysate was centrifuged (9,000 rpm, 30 min, 4°C), and the supernatant was collected. Cruzain was precipitated by incubation with 35% ammonium sulfate (2 h), and this suspension was centrifuged at 9,000 rpm for 30 min at 4°C. The precipitated cruzain was resuspended in lysis buffer, and the sample was dialyzed to eliminate ammonium sulfate. The soluble fraction of the dialysate was loaded on a Ni−NTA column (Qiagen, Hilden, Germany), and the contaminants were washed using washing buffer (300 mM NaCl, 50 mM Tris-HCl, and 10 mM imidazole, pH 8.0). Cruzain was eluted by applying an increasing imidazole gradient: 25, 50, 75, 100, and 250 mM. The fractions containing cruzain were pooled together and dialyzed against 1.5 L of 0.1 M acetate buffer, pH 5.5, and then concentrated to 0.5 mg/ml. Pro-cruzain was activated by incubation with activation buffer (100 mM sodium acetate, pH 5.5, 10 mM EDTA, 5 mM DTT, and 1 M NaCl) at 37°C. […] After activation, the enzyme was diluted 20-fold in binding buffer (20 mM sodium phosphate and 150 mM NaCl, pH 7.2) and added to thiopropyl Sepharose 6B resin (GE Healthcare Life Sciences, Pittsburgh, PA). After overnight incubation at 4°C, the resin was loaded on a column, and cruzain was eluted with binding buffer supplemented with 20 mM DTT. Fractions containing cruzain were pooled together and stored in 0.1 M sodium acetate, pH 5.5, at −80°C.
# Cruzain activity was followed by monitoring the cleavage of the fluorogenic substrate Z-Phe-Arg-aminomethyl coumarin (Z-FR-AMC), as previously described ([Ferreira et al., 2019]), using 96-well flat-bottom black plates and wavelengths of 355 nm for excitation and 460 nm for emission. All cruzain assays were performed in 0.1 M sodium acetate buffer with 5 mM dithiothreitol (DTT) and 0.01% Triton X-100, pH 5.5. […] The cleavage of the substrate was monitored for 5 min, and the activity was calculated based on the initial reaction rates compared with the rate of a DMSO control at 30°C. The IC50 values were independently calculated by considering the rate measurements for at least six inhibitor concentrations, each evaluated in triplicate. To determine the mechanism of cruzain inhibition, eight concentrations of the substrate Z-FR-AMC and four concentrations of the inhibitor were employed, each in triplicate. Kinetic parameters were determined using the SigmaPlot (Systat Software Inc., Erkrath, Germany) enzyme kinetics module. Compounds were tested in two or three independent experiments. All enzyme assays were performed using varying Triton X-100 concentrations (0, 0.01, and 0.1%) ([Ferreira et al., 2009]). Compound concentrations were 100 μM in the single-dose percentage inhibition assays.
# rhodesain = rhodesain (Trypanosoma brucei rhodesiense, UniProt Q95PM0); assay: Rhodesain fluorescence-based inhibition assay (Z-FR-AMC); format: biochemical; details: Table S3; compound 100 µM
# Chain of rhodesain (Q95PM0 entry or part of it): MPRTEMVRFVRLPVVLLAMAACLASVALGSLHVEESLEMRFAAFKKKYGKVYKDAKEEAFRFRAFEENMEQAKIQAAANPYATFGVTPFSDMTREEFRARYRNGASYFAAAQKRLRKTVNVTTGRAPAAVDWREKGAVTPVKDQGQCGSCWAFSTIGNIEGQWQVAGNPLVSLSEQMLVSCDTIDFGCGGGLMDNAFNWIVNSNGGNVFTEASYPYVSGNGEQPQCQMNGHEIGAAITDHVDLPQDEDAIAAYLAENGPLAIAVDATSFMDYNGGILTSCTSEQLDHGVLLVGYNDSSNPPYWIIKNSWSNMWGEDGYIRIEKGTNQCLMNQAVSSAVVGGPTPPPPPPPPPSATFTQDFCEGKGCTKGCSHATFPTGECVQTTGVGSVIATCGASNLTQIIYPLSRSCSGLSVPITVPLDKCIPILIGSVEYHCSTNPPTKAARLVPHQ
# Description: Rhodesain activity was measured using a fluorescence-based assay as previously described ([Fonseca et al., 2015]). The cleavage rates of the fluorogenic substrate Z-Phe-Arg-aminomethyl coumarin (Z-FR-AMC) were monitored at wavelengths of 340 nm for excitation and 440 nm for emission. All assays were performed in triplicate in a 0.1 M sodium acetate buffer, pH 5.5, with 1 mM beta-mercaptoethanol and 0.01% Triton X-100. The final concentration of rhodesain was 3 nM, and the substrate concentration was 2.5 μM. The cleavage of the substrate was followed by continuous reading for 5 min, and enzyme activity in the presence of 100 μM of each potential inhibitor was calculated based on initial velocity rates compared to DMSO controls. All compounds were tested in triplicate in three independent experiments.
smiles,measurement,setting,value
O=C(COc1ccc2cc(C(=O)O)ccc2c1)NCCc1nc2ccccc2[nH]1 [Compound 13],IC50,[1],> 50 µM
same,"Papp at 5 h, 1 µM",[2],0.83 ×10⁻⁶ cm/s
same,IC50,"cruzain; 1.5 nM cruzain, 5.0 µM Z-FR-AMC, mean ± SD of 2–3 assays, read-out: IC50 (µM) against cruzain",24.2 ± 4.5 µM
same,inhibition at 100 µM,"cruzain; compound 100 µM, mean of three measures",89%
same,inhibition at 100 µM,rhodesain,54%
